Measurements from ChEMBL document CHEMBL5725612, “Pyridone FabI inhibitors and uses thereof” (2018).

Biological target: T1, Enoyl-[acyl-carrier-protein] reductase [NADPH] FabI (Staphylococcus aureus, UniProt Q6GI75)
T1 sequence (Q6GI75 whole entry): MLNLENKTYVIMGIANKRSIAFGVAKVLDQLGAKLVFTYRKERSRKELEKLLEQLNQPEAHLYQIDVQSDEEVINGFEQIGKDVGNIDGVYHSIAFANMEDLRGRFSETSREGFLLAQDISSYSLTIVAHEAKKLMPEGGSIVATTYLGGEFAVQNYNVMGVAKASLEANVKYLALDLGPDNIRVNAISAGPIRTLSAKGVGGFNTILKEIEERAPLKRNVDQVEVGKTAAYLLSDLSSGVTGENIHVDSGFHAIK
Assay: Tight-binding assay: Kinetics were performed on a Cary 100 spectrophotometer (Varian) at 20° C. Reaction velocities were measured by monitoring the oxidation of NAD(P)H to NAD(P)+ at 340 nm (Figure US10071965-20180911-P00001=6220 M−1 cm−1). For saFabI, the reaction mixture was identical to that described previously for progress curve experiments (Schiebel et al. (2012). Structure 20:802-13). For ecFabI, the final reaction mixture contained ecFabI (75 nM), trans-2-butenoyl-CoA (800 μM; Sigma and Advent Bio), NADH (300 μM; Sigma), NAD+ (400 μM; Sigma), and inhibitor (2 v/v % DMSO) in 50 mM potassium phosphate, pH 7.5, 150 mM NaCl, 8 v/v % glycerol. For InhA, the final reaction mixture contained InhA (100 nM), trans-2-octenoyl-CoA (200 μM), NADH (250 μM), NAD+ (200 μM), and inhibitor (2 v/v % DMSO) in 30 mM PIPES, pH 6.8, 150 mM NaCl, 1 mM EDTA, 8 v/v % glycerol. The resulting curves were fit to the Morrison and Walsh integrated rate equation (Equation 1) (Morrison et al.

## Oc1ccccc1Oc1ccccc1
  Ki: 24.5 µM
